Values joined by “and” are separate entries in the source; they are usually repeats but may differ in a detail not shown here. Equal entries are not always repeated. Where two headings read alike, the source gives them in different places.
Assays:
[1] = biological target: T1, UGT-mediated glucuronidation of molidustat (M1 formation) (Homo sapiens, UniProt P22309); experiment: Inhibition of M1 formation from molidustat in pooled human liver microsomes; assay type: in vitro ADME; details: human, pooled human liver microsomes, probe molidustat 5 µmol/L (formation of M1), IC50, pooled HLMs 0.3 mg/mL, N=1, Table 1
T1 sequence (P22309 26-533): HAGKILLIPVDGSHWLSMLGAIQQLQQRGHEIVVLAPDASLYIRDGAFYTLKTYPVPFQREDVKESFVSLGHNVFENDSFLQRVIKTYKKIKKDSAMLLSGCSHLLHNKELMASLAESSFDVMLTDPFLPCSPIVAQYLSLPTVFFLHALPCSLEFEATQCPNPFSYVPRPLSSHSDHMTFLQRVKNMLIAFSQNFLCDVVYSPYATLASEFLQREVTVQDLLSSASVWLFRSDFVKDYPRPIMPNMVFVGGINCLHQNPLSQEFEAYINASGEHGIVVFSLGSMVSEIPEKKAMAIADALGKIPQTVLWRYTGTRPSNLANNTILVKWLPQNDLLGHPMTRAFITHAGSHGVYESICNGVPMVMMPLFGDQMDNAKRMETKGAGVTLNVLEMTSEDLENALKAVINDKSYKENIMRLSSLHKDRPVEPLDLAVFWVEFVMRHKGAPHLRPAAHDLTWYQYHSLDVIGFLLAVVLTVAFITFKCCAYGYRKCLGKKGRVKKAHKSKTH

[2] = tested on: molidustat glucuronidation (clearance); experiment: In vitro-in vivo scaling: predicted increase in molidustat AUC; design: species or system human; details: fm 0.9; unbound hepatic inlet concentration, ka 0.1 min^−1
[3] = tested on: pooled human liver microsomes; experiment: Isoform-specific UGT inhibitors on M1 formation in human liver microsomes; assay type: in vitro ADME; details: inhibitor 10 µmol L^−1; liver, intestine and kidney microsomes
[4] = cited from earlier work
[5] = assay type: in vivo, human; details: for t max: n = 13, median and range
[6] = (Molidustat + atazanavir)/molidustat, ANOVA

| Compound | IC50 at 30 min [1] [µM] | further results |
| --- | --- | --- |
| Oc1cc(O)c2c(c1)O[C@H](c1cc(O)c(O)c(O)c1)[C@H](O)C2 [(‐)‐Epigallocatechin] | 5.1 |  |
| C[C@]12CC[C@@H](O)C[C@@H]1CC[C@@H]1[C@@H]2CC[C@]2(C)C(=O)CC[C@@H]12 [Androsterone] | 44 |  |
| COc1ccc(CCN2CCC(Nc3nc4ccccc4n3Cc3ccc(F)cc3)CC2)cc1 [Astemizole] | 23.5 |  |
| COC(=O)N[C@H](C(=O)N[C@@H](Cc1ccccc1)[C@@H](O)CN(Cc1ccc(-c2ccccn2)cc1)NC(=O)[C@@H](NC(=O)OC)C(C)(C)C)C(C)(C)C [Atazanavir] |  | AUCRinlet, ka 0.1 min^−1 (estimated increase in molidustat AUC) [2]: more than fivefold |
| CC(C)=CCC/C(C)=C/COc1c2ccoc2cc2oc(=O)ccc12 [Bergamottin] | 14.8 |  |
| C=CC1=C(C)/C(=C/c2[nH]c(Cc3[nH]c(/C=C4\NC(=O)C(C)=C4C=C)c(C)c3CCC(=O)O)c(CCC(=O)O)c2C)NC1=O [Bilirubin] | 1.5 |  |
| COc1ccccc1OCCNCC(O)COc1cccc2[nH]c3ccccc3c12 (centres unmarked) [Carvedilol] | 2.9 |  |
| Cc1ccc(-c2cc(C(F)(F)F)nn2-c2ccc(S(N)(=O)=O)cc2)cc1 [Celecoxib] | 10.6 |  |
| COc1cc(N)c(Cl)cc1C(=O)NC1CCN(CCCOc2ccc(F)cc2)CC1OC (centres unmarked) [Cisapride] | 4.1 |  |
| Clc1ccccc1C(c1ccccc1)(c1ccccc1)n1ccnc1 [Clotrimazole] | 10.2 |  |
| COc1cc(/C=C/C(=O)CC(=O)/C=C/c2ccc(O)c(OC)c2)ccc1O [Curcumin] | 2.2 |  |
| O=c1c(-c2ccc(O)cc2)coc2cc(O)ccc12 [Daidzein] | 6.8 |  |
| Cc1nc(Nc2ncc(C(=O)Nc3c(C)cccc3Cl)s2)cc(N2CCN(CCO)CC2)n1 [Dasatinib] | 1.4 |  |
| O=C(O)Cc1ccccc1Nc1c(Cl)cccc1Cl [Diclofenac] | 38.2 |  |
| O=C(O)c1cc(-c2ccc(F)cc2F)ccc1O [Diflunisal] | 75.6 |  |
| COc1cccc2c1C(=O)c1c(O)c3c(c(O)c1C2=O)C[C@@](O)(C(=O)CO)C[C@@H]3O[C@H]1C[C@H](N)[C@H](O)[C@H](C)O1 [Doxorubicin] | 40.4 |  |
| O=C1Nc2ccc(Cl)cc2[C@@](C#CC2CC2)(C(F)(F)F)O1 [Efavirenz] | 8 |  |
| C#Cc1cccc(Nc2ncnc3cc(OCCOC)c(OCCOC)cc23)c1 [Erlotinib] | 0.13 | AUCRinlet, ka 0.1 min^−1 (estimated increase in molidustat AUC) [2]: more than fivefold |
| CO[C@H]1C[C@@H]2CC[C@@H](C)[C@@](O)(O2)C(=O)C(=O)N2CCCC[C@H]2C(=O)O[C@H]([C@H](C)C[C@@H]2CC[C@@H](OCCO)[C@H](OC)C2)CC(=O)[C@H](C)/C=C(\C)[C@@H](O)[C@@H](OC)C(=O)[C@H](C)C[C@H](C)/C=C/C=C/C=C/1C [Everolimus] | 4.5 |  |
| Cc1nc(-c2ccc(OCC(C)C)c(C#N)c2)sc1C(=O)O [Febuxostat] | 7.2 |  |

| Compound | IC50 at 30 min [1] [µM] | further results |
| --- | --- | --- |
| COc1cc2ncnc(Nc3ccc(F)c(Cl)c3)c2cc1OCCCN1CCOCC1 [Gefitinib] | 1.8 |  |
| O=c1c(-c2ccc(O)cc2)coc2cc(O)cc(O)c12 [Genistein] | 2.3 |  |
| COc1ccc(Cl)cc1C(=O)NCCc1ccc(S(=O)(=O)NC(=O)NC2CCCCC2)cc1 [Glibenclamide] | 6.3 |  |
| CC(C)(C)NC(=O)[C@@H]1CN(Cc2cccnc2)CCN1C[C@@H](O)C[C@@H](Cc1ccccc1)C(=O)N[C@H]1c2ccccc2C[C@H]1O [Indinavir] | 3 |  |
| CCC(C)n1ncn(-c2ccc(N3CCN(c4ccc(OCC5COC(Cn6cncn6)(c6ccc(Cl)cc6Cl)O5)cc4)CC3)cc2)c1=O (centres unmarked) [Itraconazole] | 1.2 |  |
| CC(=O)N1CCN(c2ccc(OCC3COC(Cn4ccnc4)(c4ccc(Cl)cc4Cl)O3)cc2)CC1 (centres unmarked) [Ketoconazole] | 6.1 |  |
| Cc1c(OCC(F)(F)F)ccnc1C[S+]([O-])c1nc2ccccc2[nH]1 (centres unmarked) [Lansoprazole] | 36.8 |  |
| CS(=O)(=O)CCNCc1ccc(-c2ccc3ncnc(Nc4ccc(OCc5cccc(F)c5)c(Cl)c4)c3c2)o1 [Lapatinib] | 2.5 |  |
| Cc1cccc(C)c1OCC(=O)N[C@@H](Cc1ccccc1)[C@@H](O)C[C@H](Cc1ccccc1)NC(=O)[C@H](C(C)C)N1CCCNC1=O [Lopinavir] | 1.3 |  |
| CC[C@H](C)C(=O)O[C@H]1C[C@@H](C)C=C2C=C[C@H](C)[C@H](CC[C@@H]3C[C@@H](O)CC(=O)O3)[C@H]21 [Lovastatin] | 10.5 |  |
| Cc1cccc(Nc2ccccc2C(=O)O)c1C [Mefenamic acid] | 16 | inhibitory activity on M1 formation [3]: none or very little activity |
| CC[C@H](C)C(=O)O[C@H]1CCC=C2C=C[C@H](C)[C@H](CC[C@@H]3C[C@@H](O)CC(=O)O3)[C@H]21 [Mevastatin] | 13.2 |  |
| COCC(=O)O[C@]1(CCN(C)CCCc2nc3ccccc3[nH]2)CCc2cc(F)ccc2[C@@H]1C(C)C [Mibefradil] | 20.2 |  |
| Clc1ccc(COC(Cn2ccnc2)c2ccc(Cl)cc2Cl)c(Cl)c1 (centres unmarked) [Miconazole] | 19.3 |  |
| Cc1ncc2n1-c1ccc(Cl)cc1C(c1ccccc1F)=NC2 [Midazolam] | 11.1 |  |
| CC#C[C@]1(O)CC[C@H]2[C@@H]3CCC4=CC(=O)CCC4=C3[C@@H](c3ccc(N(C)C)cc3)C[C@@]21C [Mifepristone] | 1.4 |  |
| CC(C)(O)c1ccccc1CC[C@@H](SCC1(CC(=O)O)CC1)c1cccc(/C=C/c2ccc3ccc(Cl)cc3n2)c1 [Montelukast] | 0.49 |  |
| O=C1C[C@@H](c2ccc(O)cc2)Oc2cc(O)cc(O)c21 [Naringenin] | 11.6 |  |
| CCc1nn(CCCN2CCN(c3cccc(Cl)c3)CC2)c(=O)n1CCOc1ccccc1 [Nefazodone] | 11.4 |  |
| Cc1c(O)cccc1C(=O)N[C@@H](CSc1ccccc1)[C@H](O)CN1C[C@H]2CCCC[C@H]2C[C@H]1C(=O)NC(C)(C)C [Nelfinavir] | 1.5 |  |

| Compound | IC50 at 30 min [1] [µM] | further results |
| --- | --- | --- |
| O=C(O)c1cccnc1Nc1cccc(C(F)(F)F)c1 [Niflumic acid] | 14.6 |  |
| Cc1cn(-c2cc(NC(=O)c3ccc(C)c(Nc4nccc(-c5cccnc5)n4)c3)cc(C(F)(F)F)c2)cn1 [Nilotinib] | 0.17 | AUCRinlet, ka 0.1 min^−1 (estimated increase in molidustat AUC) [2]: more than fivefold |
| COc1ccc2[nH]c([S+]([O-])Cc3ncc(C)c(OC)c3C)nc2c1 (centres unmarked) [Omeprazole] | 17.1 |  |
| CC(=O)O[C@H]1C(=O)[C@@]2(C)[C@H]([C@H](OC(=O)c3ccccc3)[C@]3(O)C[C@H](OC(=O)[C@H](O)[C@@H](NC(=O)c4ccccc4)c4ccccc4)C(C)=C1C3(C)C)[C@]1(OC(C)=O)CO[C@@H]1C[C@@H]2O [Paclitaxel] | 10.8 |  |
| COc1ccnc(C[S+]([O-])c2nc3ccc(OC(F)F)cc3[nH]2)c1OC (centres unmarked) [Pantoprazole] | 19.7 |  |
| O=C(O)C[C@H](O)C[C@H](O)/C=C/c1c(C2CC2)nc2ccccc2c1-c1ccc(F)cc1 [Pitavastatin] | 14.8 |  |
| O=c1c(O)c(-c2ccc(O)c(O)c2)oc2cc(O)cc(O)c12 [Quercetin] | 5.5 |  |
| CN(CCOc1ccc(CC2SC(=O)NC2=O)cc1)c1ccccn1 (centres unmarked) [Rosiglitazone] | 10.7 |  |
| CCCc1nn(C)c2c(=O)[nH]c(-c3cc(S(=O)(=O)N4CCN(C)CC4)ccc3OCC)nc12 [Sildenafil] | 46.2 |  |
| CNC(=O)c1cc(Oc2ccc(NC(=O)Nc3ccc(Cl)c(C(F)(F)F)c3)cc2)ccn1 [Sorafenib] | 0.32 |  |
| O=C1C(CC[S+]([O-])c2ccccc2)C(=O)N(c2ccccc2)N1c1ccccc1 (centres unmarked) [Sulfinpyrazone] | 31.4 |  |
| CC1=C(CC(=O)O)c2cc(F)ccc2/C1=C\c1ccc([S+](C)[O-])cc1 (centres unmarked) [Sulindac] | 37.5 |  |
| CCN(CC)CCNC(=O)c1c(C)[nH]c(/C=C2\C(=O)Nc3ccc(F)cc32)c1C [Sunitinib] | 18.7 |  |
| C=CC[C@@H]1/C=C(\C)C[C@H](C)C[C@H](OC)[C@H]2O[C@@](O)(C(=O)C(=O)N3CCCC[C@H]3C(=O)O[C@H](/C(C)=C/[C@@H]3CC[C@@H](O)[C@H](OC)C3)[C@H](C)[C@@H](O)CC1=O)[C@H](C)C[C@@H]2OC [Tacrolimus] | 0.7 |  |
| CCCc1nc2c(C)cc(-c3nc4ccccc4n3C)cc2n1Cc1ccc(-c2ccccc2C(=O)O)cc1 [Telmisartan] | 2.8 |  |
| COc1ccc(/C=C/C(=O)Nc2ccccc2C(=O)O)cc1OC [Tranilast] | 1.7 |  |
| Cc1c(F)cccc1NC(=O)Nc1ccc(Cl)c(S(=O)(=O)[C@H]2CCCNC2)c1O [danirixin] |  | drug excreted as glucuronides [4]: approximately 90%; recovered as directly conjugated parent compound [4]: 80% |
| Molidustat glucuronide [M1] |  | t max ([5]; 25 mg molidustat + atazanavir 400 mg qd for 5 days): 2.0 (1.5‐4.0) H; t max ([5]; 25 mg molidustat alone): 2.0 (1.0‐3.0) H; Point estimate parameter ratio, AUC [5, 6]: 0.85 and 0.8472; Point estimate parameter ratio, AUC(0‐tlast) [5, 6]: 0.8470; Point estimate parameter ratio, C max [5, 6]: 0.80 and 0.8002; reduction in systemic exposure to the glucuronide M1 with atazanavir ([5]; human, in vivo): −15%; exposure to M1 in the presence of atazanavir ([5]; relative to molidustat alone): approximately 85% |

— publication PMC7983974 (Basic & Clinical Pharmacology & Toxicology, 2020)
